Results reported in patent US11923581B2, “Aqueous redox flow battery electrolytes with high chemical and electrochemical stability, high water solubility, low membrane permeability” (President and Fellows of Harvard College, priority 2016, dated 2024).

What was measured:
physchem = conditions: 25 °C, thermodynamic from solid
[1] = Cyclic voltammetry, reduction potential; type: physicochemical
Solubility in water = conditions: 25° C.
[2] = cited from earlier work

With `C[N+](C)(C)CCC[n+]1ccc(-c2cc[n+](CCC[N+](C)(C)C)cc2)cc1` [Compound 1, (3-trimethylammonio)propyl viologen tetrachloride] the solubility (physchem; pH 7, water) was 2000 mM, the solubility (physchem; water) was 2000 mM and the “reduction potential vs. Ag/AgCl reference electrode” value ([1]; pH 7) was −0.55 V. For the same compound, the “reduction potential vs. RHE” value ([1]; pH 7) was “+0.07 V”.

In the case of `C[N+](C)(C)CCC[c-]1cccc1.C[N+](C)(C)CCC[c-]1cccc1.[Cl-].[Cl-].[Fe+2]` [Compound 2, bis((3-trimethylammonio)propyl)ferrocene dichloride], the “reduction potential vs. Ag/AgCl reference electrode” value ([1]; pH 7) is reported as “+0.21 V” and the “reduction potential vs. RHE” value ([1]; pH 7) is reported as “+0.83 V”.

With `C[N+](C)(C)C[c-]1cccc1.F[B-](F)(F)F.[Fe+2].c1cc[cH-]c1` [Compound 3] the “reduction potential vs. RHE” value ([1]; pH 7, converted from the measured potential) was “+1.05 V”, the “reduction potential vs. Ag/AgCl reference electrode” value ([1]; pH 7, cyclic voltammetry) was “+0.43 V” and the water solubility (Solubility in water) was ~400 mM.

With `C[N+](C)(C)CCCNC(=O)[c-]1cccc1.[Cl-].[Fe+2].c1cc[cH-]c1` [Compound 7, N-((3-trimethylammonio)propyl) ferrocenecarboxamide chloride] the “reduction potential higher than that of 2” value ([1]; pH 7) was ~240 mV, the “reduction potential vs SHE” value ([1]; pH 7) was “+0.63 V” and the “reduction potential vs. RHE” value ([1]; pH 7) was “+1.04 V”.

In the case of `C[n+]1ccc(-c2cc[n+](C)cc2)cc1` [MV dichloride, methyl viologen], the “solubility in water at pH 7” value [2] is listed as 3.0 M.
